# Measurements as given in US8883827B2, “Azole derivatives as WTN pathway inhibitors” (Oslo University Hospital HF, priority 2009, dated 2014).
# Where “and” joins values, the source holds several entries; their conditions need not be identical. Identical values can stand only once.
# How the values were obtained:
# [1] = biological target: T1, Aurora-A(h) (Homo sapiens, UniProt O14965); assay: Kinase screen; assay type: biochemical; conditions: 0.1% DMSO control = 100%
# T1 construct: purchased Millipore (KinaseProfiler service)
# T1 sequence (O14965 whole entry): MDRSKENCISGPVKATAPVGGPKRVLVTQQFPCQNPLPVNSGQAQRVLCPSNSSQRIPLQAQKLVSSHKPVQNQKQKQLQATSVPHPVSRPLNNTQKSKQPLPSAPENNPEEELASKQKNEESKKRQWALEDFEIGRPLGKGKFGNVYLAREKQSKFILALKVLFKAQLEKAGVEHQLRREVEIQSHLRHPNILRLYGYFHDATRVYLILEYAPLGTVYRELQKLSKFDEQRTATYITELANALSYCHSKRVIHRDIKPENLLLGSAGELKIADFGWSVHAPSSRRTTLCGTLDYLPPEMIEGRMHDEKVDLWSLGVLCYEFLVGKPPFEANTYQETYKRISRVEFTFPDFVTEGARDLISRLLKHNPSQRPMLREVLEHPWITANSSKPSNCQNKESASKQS
# [2] = system: panel of phosphatases and kinases; assay: KinaseProfiler phosphatase and kinase panel (whole); assay type: biochemical; conditions: 10 μM compound
# [3] = system: Apc^Min mice; assay: Tumour growth in Apc^Min mice; assay type: in vivo
# Protocol: Cages containing three C57BL/6 females were crossed with one C57BL/6J-Apc^Min male. The mice were fed with 2018SX Teklad Global 18% Protein Extruded Rodent Diet (Harlan™). 5-7 day old pups were randomized and divided into two treatment groups; the test group was treated with compound (1) and the control group treated with control vehicle (1% Tween®80—Sigma). Test solutions were administered daily by subcutaneous injection into the back of the neck (10 μl solution per gram of animal weight, solution 15 mg/ml compound). Two day injection intermissions followed after every fifth injection day. At the age of 21 days, mice were genotyped and Apc^Min animals were sorted into a males and females. At the same time, subcutaneous injection of the solutions was substituted by oral administration. For oral application, compound (1) was dissolved in DMSO to […]. DMSO alone was used as a vehicle control (5 μl solution per gram of animal weight, solution 30 mg/ml). Administration was terminated at the age of 9 weeks and animals euthanased. The small intestine and colon of each animal was dissected, fixed in 10% PFA and stained with 1% methylene blue. Intestines were divided into anonymous and coded samples before manual analysis by microscopy. The frequency, distribution and size of the tumors were quantified. The mice were weighted twice a week throughout the experiment. All animal experiments were approved by local ethics authorities at Forsøksdyrutvalget, Oslo, Norway, and were carried out following accepted ethical standards. […] For each statistical comparison, a Shapiro-Wilk normality test was performed along with a Students t-test if passed (P>0.05). When normality could not be achieved in the Shapiro-Wilk test, a Mann-Whitney rank sum test was used instead of Students t-test. The α-level was set to 0.05 and a difference with P<0.05 was considered to be statistically significant. Sample size (n), median, range, maximum, minimum, mean, standard deviation, standard error, and confidence intervals (C.I. of mean) are listed.
# [4] = biological target: T2, CD45(h) (Homo sapiens, UniProt P08575); assay: Phosphatase screen; assay type: biochemical; conditions: 0.1% DMSO control = 100%
# T2 construct: purchased Millipore (KinaseProfiler service)
# T2 sequence (P08575 26-1306): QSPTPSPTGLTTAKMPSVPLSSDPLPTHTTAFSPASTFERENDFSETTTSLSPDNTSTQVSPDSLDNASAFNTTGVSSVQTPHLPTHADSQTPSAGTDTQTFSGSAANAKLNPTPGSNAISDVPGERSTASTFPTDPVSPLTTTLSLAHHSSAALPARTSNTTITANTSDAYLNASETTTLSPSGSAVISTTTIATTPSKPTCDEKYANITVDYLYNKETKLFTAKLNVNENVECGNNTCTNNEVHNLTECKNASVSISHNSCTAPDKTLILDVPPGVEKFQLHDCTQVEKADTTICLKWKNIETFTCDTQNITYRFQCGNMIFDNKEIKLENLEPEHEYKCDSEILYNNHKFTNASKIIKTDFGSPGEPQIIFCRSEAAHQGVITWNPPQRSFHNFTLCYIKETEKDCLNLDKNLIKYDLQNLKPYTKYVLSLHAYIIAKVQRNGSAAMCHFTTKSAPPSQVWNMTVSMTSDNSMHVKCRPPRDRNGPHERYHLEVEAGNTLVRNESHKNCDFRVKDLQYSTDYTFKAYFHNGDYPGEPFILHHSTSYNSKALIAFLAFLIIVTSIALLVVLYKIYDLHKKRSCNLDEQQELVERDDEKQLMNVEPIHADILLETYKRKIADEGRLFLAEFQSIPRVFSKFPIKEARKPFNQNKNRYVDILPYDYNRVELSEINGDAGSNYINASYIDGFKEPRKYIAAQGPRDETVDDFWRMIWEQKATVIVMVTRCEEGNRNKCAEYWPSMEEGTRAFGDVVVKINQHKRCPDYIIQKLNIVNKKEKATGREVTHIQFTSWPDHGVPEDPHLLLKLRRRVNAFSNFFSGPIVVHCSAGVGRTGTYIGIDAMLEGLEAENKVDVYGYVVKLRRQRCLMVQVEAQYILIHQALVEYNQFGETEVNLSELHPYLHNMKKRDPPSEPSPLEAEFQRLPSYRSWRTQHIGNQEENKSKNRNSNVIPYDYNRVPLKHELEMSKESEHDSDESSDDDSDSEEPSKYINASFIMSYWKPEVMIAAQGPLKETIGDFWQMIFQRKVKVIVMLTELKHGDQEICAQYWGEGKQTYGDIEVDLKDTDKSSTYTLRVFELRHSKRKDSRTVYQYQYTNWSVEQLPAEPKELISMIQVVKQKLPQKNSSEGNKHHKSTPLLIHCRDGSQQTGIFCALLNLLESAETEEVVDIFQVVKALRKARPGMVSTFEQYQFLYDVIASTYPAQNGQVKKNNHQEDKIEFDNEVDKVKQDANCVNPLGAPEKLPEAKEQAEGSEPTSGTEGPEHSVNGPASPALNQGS
# [5] = system: SW480 colorectal cells; assay: SW480 xenograft in CB17/SCID mice; assay type: in vivo
# Protocol: SW480 colorectal cells were injected subcutaneously into CB17/SCID mice and palpable tumors were detected within 7 days in 50% of the mice. Randomized groups of mice were injected (i.p.) daily with compound No. 1 at doses of […] or 30 mg/kg (delivered daily for five days followed by a 2-day pause) at termination, plasma was collected and tumors were isolated and weighed. 40 female […] (Taconic) were injected subcutaneously (s.c.) at the right posterior flank with 10^7 SW480 cells diluted in 100 μl PBS. Injections were initiated when tumor formation was visible in 50% of the animals (7 days). Mice were randomized and divided into three treatment groups: 150 mg/kg compound No. 1, 300 mg/kg compound No. 1 and vehicle control 1% Tween® 80 (Sigma). Daily injections (200 μl, i.p.) followed (two day injection intermissions after every fifth injection day) until experiment end (29 days). At the termination day, 24 hours after the last injection, blood was collected after cardiac puncture and the tumors were removed and weighed. The compound concentration in plasma and tumors was determined using an on-line and off-line Solid Phase Extraction-Capillary Liquid Chromatography ([…]) instrumentation coupled to a Time of Flight (TOF) mass spectrometer, as previously described (Wilson, S. R. et al., J. Sep. Sci. 28: 1751-1758, 2005). A Zorbax SB C18 5 μm 150×0.3 mm column (Agilent, […], Calif., USA) was used for separation, and a Knauer K-2600 UV detector was used as a complimentary detector. RNA was isolated from representative groups of tumors (n=5) and analysed by real-time RT-PCR as described in Example 25 for expression of Sp5. Results were calculated as the ratio of expression of Sp5 to a control gene (hGUSB). As described in standard protocols, immunostaining was performed with rabbit polyclonal smooth muscle actin (Abcam) and monoclonal β-catenin (BD Transduction LaboratoriesTM), both diluted 1:1000. Secondary antibodies used were 1:500 diluted Alexa Fluor® 594 goat anti-rabbit antibody and Alexa Fluor® 488 goat anti-mouse antibody. The sections were imaged by a Zeiss Axiovert 200M Fluorescence/Live cell Imaging Microscope with X^40 magnification and the same exposure times.
# [6] = biological target: T3, Pim-1(h) (Homo sapiens, UniProt P11309); assay: Kinase screen; assay type: biochemical; conditions: 0.1% DMSO control = 100%
# T3 construct: purchased Millipore (KinaseProfiler service)
# T3 sequence (P11309 whole entry): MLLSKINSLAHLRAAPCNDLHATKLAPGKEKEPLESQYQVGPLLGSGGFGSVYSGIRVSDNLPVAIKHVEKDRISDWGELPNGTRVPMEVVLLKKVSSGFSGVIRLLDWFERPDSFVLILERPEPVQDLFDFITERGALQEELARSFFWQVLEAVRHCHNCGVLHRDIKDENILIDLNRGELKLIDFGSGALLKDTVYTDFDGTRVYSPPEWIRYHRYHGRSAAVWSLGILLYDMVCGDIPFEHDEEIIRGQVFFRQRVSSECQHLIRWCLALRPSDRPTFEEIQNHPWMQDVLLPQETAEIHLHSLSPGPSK
# [7] = biological target: T4, PKA(h) (Homo sapiens, UniProt P17612); assay: Kinase screen; assay type: biochemical; conditions: 0.1% DMSO control = 100%
# T4 construct: purchased Millipore (KinaseProfiler service)
# [8] = biological target: T5, RPTPm(h) (Homo sapiens, UniProt P28827); assay: Phosphatase screen; assay type: biochemical; conditions: 0.1% DMSO control = 100%
# T5 construct: purchased Millipore (KinaseProfiler service)
# [9] = biological target: T6, JAK2(h) (Homo sapiens, UniProt O60674); assay: Kinase screen; assay type: biochemical; conditions: 0.1% DMSO control = 100%
# T6 construct: purchased Millipore (KinaseProfiler service)
# T6 sequence (O60674 whole entry): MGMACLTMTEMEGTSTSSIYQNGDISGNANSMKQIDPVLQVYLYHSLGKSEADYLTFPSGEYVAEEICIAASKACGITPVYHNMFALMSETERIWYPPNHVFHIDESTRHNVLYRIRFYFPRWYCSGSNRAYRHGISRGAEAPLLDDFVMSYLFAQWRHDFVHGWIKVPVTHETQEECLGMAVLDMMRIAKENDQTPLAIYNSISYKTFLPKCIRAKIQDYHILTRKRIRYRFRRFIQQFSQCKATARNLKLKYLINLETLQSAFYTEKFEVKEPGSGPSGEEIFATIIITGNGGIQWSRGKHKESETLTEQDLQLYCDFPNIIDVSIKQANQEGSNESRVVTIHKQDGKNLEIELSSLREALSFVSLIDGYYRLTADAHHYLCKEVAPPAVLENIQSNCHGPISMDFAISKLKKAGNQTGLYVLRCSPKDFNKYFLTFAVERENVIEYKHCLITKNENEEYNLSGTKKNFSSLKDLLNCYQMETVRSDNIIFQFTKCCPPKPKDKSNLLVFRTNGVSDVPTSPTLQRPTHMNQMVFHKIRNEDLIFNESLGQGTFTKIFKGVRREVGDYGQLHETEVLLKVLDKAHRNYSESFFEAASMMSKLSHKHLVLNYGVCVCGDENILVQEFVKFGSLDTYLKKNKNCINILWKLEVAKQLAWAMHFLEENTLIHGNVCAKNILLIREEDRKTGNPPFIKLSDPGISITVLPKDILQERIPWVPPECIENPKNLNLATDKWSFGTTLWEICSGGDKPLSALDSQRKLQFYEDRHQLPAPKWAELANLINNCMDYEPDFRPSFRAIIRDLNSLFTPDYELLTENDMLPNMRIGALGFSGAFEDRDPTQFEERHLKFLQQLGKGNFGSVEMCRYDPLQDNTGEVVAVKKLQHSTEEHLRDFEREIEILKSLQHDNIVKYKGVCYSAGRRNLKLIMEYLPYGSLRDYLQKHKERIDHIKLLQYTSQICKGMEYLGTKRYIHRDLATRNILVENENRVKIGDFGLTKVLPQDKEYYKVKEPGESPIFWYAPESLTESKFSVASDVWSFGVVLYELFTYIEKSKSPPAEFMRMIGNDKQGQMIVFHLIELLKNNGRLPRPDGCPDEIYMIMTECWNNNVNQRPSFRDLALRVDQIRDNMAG
# [10] = biological target: T7, CDK2/cyclinA(h) (Homo sapiens, UniProt P24941); assay: Kinase screen; assay type: biochemical; conditions: 0.1% DMSO control = 100%
# T7 construct: purchased Millipore (KinaseProfiler service)
# [11] = system: PP2A(h); assay: Phosphatase screen; assay type: biochemical, human; conditions: 10 μM; 0.1% DMSO control = 100%
# [12] = biological target: T8, CDK9/cyclin T1(h) (Homo sapiens, UniProt P50750); assay: Kinase screen; assay type: biochemical; conditions: 0.1% DMSO control = 100%
# T8 construct: purchased Millipore (KinaseProfiler service)
# T8 sequence (P50750 whole entry): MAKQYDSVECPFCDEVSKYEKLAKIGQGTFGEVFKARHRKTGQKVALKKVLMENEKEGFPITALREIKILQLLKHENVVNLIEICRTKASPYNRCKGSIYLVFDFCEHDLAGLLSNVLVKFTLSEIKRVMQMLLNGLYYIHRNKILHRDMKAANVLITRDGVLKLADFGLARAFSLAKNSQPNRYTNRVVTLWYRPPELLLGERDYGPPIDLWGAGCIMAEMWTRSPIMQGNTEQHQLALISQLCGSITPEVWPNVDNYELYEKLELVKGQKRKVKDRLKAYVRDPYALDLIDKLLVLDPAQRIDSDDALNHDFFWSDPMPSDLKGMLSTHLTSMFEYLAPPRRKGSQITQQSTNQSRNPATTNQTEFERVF
# T8 sequence (O60563 whole entry partner): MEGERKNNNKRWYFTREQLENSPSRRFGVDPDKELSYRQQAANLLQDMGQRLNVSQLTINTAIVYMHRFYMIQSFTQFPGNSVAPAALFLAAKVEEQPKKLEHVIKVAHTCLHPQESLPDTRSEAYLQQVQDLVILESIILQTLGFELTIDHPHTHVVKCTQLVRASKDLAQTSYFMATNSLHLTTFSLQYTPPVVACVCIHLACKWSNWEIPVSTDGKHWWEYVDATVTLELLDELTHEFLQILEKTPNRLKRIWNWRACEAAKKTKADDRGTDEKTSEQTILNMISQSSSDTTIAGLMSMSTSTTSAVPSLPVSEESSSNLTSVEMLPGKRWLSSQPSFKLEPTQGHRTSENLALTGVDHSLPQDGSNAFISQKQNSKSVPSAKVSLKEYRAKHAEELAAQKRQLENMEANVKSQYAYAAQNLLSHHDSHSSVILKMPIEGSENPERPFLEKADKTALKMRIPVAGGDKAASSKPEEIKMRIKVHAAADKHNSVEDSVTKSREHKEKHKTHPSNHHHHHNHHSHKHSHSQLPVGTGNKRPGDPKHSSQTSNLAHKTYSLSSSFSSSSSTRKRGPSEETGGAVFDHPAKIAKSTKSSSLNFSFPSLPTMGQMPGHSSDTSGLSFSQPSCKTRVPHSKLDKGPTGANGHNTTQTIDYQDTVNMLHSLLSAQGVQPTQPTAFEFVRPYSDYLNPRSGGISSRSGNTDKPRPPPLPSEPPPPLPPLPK
# [13] = biological target: T9, MAPK2(h) (Homo sapiens, UniProt P28482); assay: Kinase screen; assay type: biochemical; conditions: 0.1% DMSO control = 100%
# T9 construct: purchased Millipore (KinaseProfiler service)
# [14] = biological target: T10, PTPN22(h) (Homo sapiens, UniProt Q9Y2R2); assay: Phosphatase screen; assay type: biochemical; conditions: 0.1% DMSO control = 100%
# T10 construct: purchased Millipore (KinaseProfiler service)
# T10 sequence (Q9Y2R2 whole entry): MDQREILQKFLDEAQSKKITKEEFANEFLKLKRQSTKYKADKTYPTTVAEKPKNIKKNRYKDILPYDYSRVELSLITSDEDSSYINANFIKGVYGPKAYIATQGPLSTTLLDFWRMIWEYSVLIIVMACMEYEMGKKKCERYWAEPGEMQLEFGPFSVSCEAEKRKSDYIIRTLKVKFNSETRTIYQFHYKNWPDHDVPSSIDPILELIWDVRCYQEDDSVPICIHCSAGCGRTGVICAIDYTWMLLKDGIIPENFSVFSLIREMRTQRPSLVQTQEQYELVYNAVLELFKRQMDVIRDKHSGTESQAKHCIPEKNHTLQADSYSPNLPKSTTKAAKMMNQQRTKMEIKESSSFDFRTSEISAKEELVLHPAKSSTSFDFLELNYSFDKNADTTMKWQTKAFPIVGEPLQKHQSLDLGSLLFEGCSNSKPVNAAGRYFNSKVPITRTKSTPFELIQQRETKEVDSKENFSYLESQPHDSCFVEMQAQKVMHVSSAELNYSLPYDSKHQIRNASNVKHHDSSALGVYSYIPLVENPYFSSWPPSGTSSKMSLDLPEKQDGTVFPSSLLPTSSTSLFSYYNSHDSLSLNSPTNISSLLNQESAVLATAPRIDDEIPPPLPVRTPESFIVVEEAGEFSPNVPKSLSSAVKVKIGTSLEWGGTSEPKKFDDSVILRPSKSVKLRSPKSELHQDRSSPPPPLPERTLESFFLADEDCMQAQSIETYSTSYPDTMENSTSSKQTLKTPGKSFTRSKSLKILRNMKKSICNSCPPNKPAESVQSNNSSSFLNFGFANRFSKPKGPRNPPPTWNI
# [15] = Test female, s.c. then oral 150 mg/kg, to age 9 weeks
# [16] = Test male, s.c. then oral 150 mg/kg, to age 9 weeks
smiles,measurement,setting,value
COc1ccc(-n2c(SCc3nc(-c4ccc(C)cc4)no3)nnc2-c2ccncc2)cc1 [Compound 1],activity at 10 µM,[1],95%
same,inhibition of kinase or phosphatase activity,[2],No extensive inhibition
same,"number of colon tumours, Max","[3]; Test (male + female), control max 6",2
same,"number of small intestine tumours, Max","[3]; Test (male + female), control max 295",53
same,"number of colon tumours, Mean","[3]; Test (male + female), control mean 1.783, P=0.003",0.42 and 0.429
same,"number of small intestine tumours, Mean","[3]; Test (male + female), control mean 74.8, P=0.036",36.1
same,"number of colon tumours, Median","[3]; Test (male + female), control median 1",0
same,"number of small intestine tumours, Median","[3]; Test (male + female), control median 45",35
same,"number of colon tumours, Min","[3]; Test (male + female), control min 0",0
same,"number of small intestine tumours, Min","[3]; Test (male + female), control min 25",19
same,"number of small intestine tumours, Max",[3]; [15],51
same,"number of small intestine tumours, Mean",[3]; [15],33.5
same,"number of small intestine tumours, Median",[3]; [15],33
same,"number of small intestine tumours, Min",[3]; [15],19
same,"number of small intestine tumours, Max",[3]; [16],53
same,"number of small intestine tumours, Mean",[3]; [16],39.1
same,"number of small intestine tumours, Median",[3]; [16],37
same,"number of small intestine tumours, Min",[3]; [16],22
same,difference in the bodyweight of male or female mice,"[3]; after the treatments, versus vehicle group",No substantial difference
same,"tumour frequencies among size classes between 0.10 mm^2 and 3.20 mm^2, small intestine",[3]; compared to control,drastically reduced
same,tumours in the last two-thirds of the small intestine,[3]; compared to control,substantially fewer tumours
same,total tumor load in the small intestine (sum of all tumors in mm^2/n),[3]; control 38.1 mm^2/subject,16.4 mm^2/subject
same,activity at 10 µM,[4],108%
same,"reduction in tumor size, on average","[5]; 150 mg/kg i.p. daily (5 days on, 2 off), 29 days",33%
same,"reduction in tumor size, on average","[5]; 300 mg/kg i.p. daily (5 days on, 2 off), 29 days",35%
same,"adverse side effects, such as weight loss, during treatment","[5]; 150 or 300 mg/kg i.p., 29 days",No obvious adverse side effects
same,"SP5 mRNA in tumors (real-time RT-PCR, relative to hGUSB)",[5]; both 150 mg/kg and 300 mg/kg doses,down-regulated
same,activity at 10 µM,[6],91%
same,activity at 10 µM,[7],86%
same,activity at 10 µM,[8],103%
same,activity at 10 µM,[9],118%
same,activity at 10 µM,[10],106%
same,Activity (%),[11],87%
same,activity at 10 µM,[12],115%
same,activity at 10 µM,[13],105%
same,activity at 10 µM,[14],99%
